In article PMC10107027 (RSC Advances, 2023) one finds inhibition data, which are given here for 4 molecules.

The inhibition is how much of the control response was suppressed.

This assay has as its target T1, Neutrophil elastase enzyme (HNE) (Homo sapiens, UniProt P08246).
T1 sequence (P08246 30-267): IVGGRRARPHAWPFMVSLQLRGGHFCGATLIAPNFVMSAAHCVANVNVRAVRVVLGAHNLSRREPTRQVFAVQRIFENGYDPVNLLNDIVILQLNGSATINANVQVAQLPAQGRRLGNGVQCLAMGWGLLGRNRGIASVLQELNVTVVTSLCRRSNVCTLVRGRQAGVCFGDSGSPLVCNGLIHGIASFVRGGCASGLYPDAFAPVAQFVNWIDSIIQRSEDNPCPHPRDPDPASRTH
The assay can be described thus: Neutrophil elastase inhibitor activity. It is filed as biochemical. As to conditions: read-out: Degree of HNE inhibition (Mean).
On to `CC(C)(C)C(=O)Oc1ccc(S(=O)(=O)Nc2ccccc2C(=O)NCC(=O)O)cc1` [Sivelestat, reference compound], for which the inhibition at 0.1 µM amounted to 96.2%, the inhibition at 1 µM is 98.5%, the inhibition at 10 µM amounted to 98.6% and the inhibition at 50 µM came to 98.5%. Besides, the inhibition at 100 µM was 99.8%.

Turning to `O=C(CC1C(=O)c2ccccc2C1=O)NNC(=S)N=Cc1cccc([N+](=O)[O-])c1` [IDC7, 2-(2-(1,3-Dioxo-2,3-dihydro-1H-inden-2-yl)acetyl)-N-(3-nitrobenzylidene)hydrazine-1-carbothioamide], the inhibition at 0.1 µM worked out at 12%, the inhibition at 1 µM was 16.7%, the inhibition at 10 µM was determined as 24.6% and the inhibition at 50 µM is 25.8%. Moreover, the inhibition at 100 µM came out at 26.7%.

For `NC(=S)NNC(=O)CC1C(=O)c2ccccc2C1=O` [IDC2, 2-(2-(1,3-Dioxo-2,3-dihydro-1H-inden-2-yl)acetyl)hydrazine-1-carbothioamide], the inhibition at 0.1 µM turned out to be 16.3%, the inhibition at 1 µM was determined as 18.9%, the inhibition at 10 µM was found to be 21.5% and the inhibition at 50 µM was found to be 24.8%. The inhibition at 100 µM was 28.8%.

In the case of `NNC(=O)CC1C(=O)c2ccccc2C1=O` [IDH1, 2-(1,3-Dioxo-2,3-dihydro-1H-inden-2-yl)acetohydrazide], the inhibition at 0.1 µM is 18.6%, the inhibition at 1 µM was found to be 21.6%, the inhibition at 10 µM is 28.7% and the inhibition at 50 µM worked out at 30.1%. Also, the inhibition at 100 µM stood at 36.5%.
